PubChem BioAssay (NCI)
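Grown in 96-well plates, cells were treated for 48 hours with each compound at five concentrations. Insufficient inhibition: endpoint recorded as highest concentration tested. TGI is the concentration that stops growth completely.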

Experiments:
Experiment in all cases: NCI anticancer screen, dose series, 48 h
[1] = tested on: MDA-MB-231 breast
[2] = tested on: NCI-H226 lung
[3] = tested on: HOP-62 NSCLC
[4] = tested on: OVCAR-4 ovarian
[5] = tested on: SNB-19 CNS
[6] = tested on: SK-OV-3 ovarian
[7] = tested on: SF-539 CNS
[8] = tested on: BT-549 breast
[9] = tested on: HCT-116 colon
[10] = tested on: 786-0 renal
[11] = tested on: SN12C renal
[12] = tested on: M19-MEL melanoma
[13] = tested on: KM12 colon
[14] = tested on: OVCAR-3 ovarian
[15] = tested on: KM20L2 colon
[16] = tested on: TK-10 renal
[17] = tested on: HCC-2998 colon
[18] = tested on: SK-MEL-28 melanoma
[19] = tested on: RPMI-8226 leukemia
[20] = tested on: SF-295 CNS
[21] = tested on: COLO 205 colon
[22] = tested on: UO-31 renal
[23] = tested on: MDA-N
[24] = tested on: HCT-15 colon
[25] = tested on: HOP-92 NSCLC
[26] = tested on: DLD-1 colon
[27] = tested on: LOX IMVI melanoma
[28] = tested on: SNB-75 CNS
[29] = tested on: IGROV1 ovarian
[30] = tested on: RXF-631 renal
[31] = tested on: DMS 114 small cell lung
[32] = tested on: A549 NSCLC
[33] = tested on: HT29 colon
[34] = tested on: HL-60(TB) leukemia
[35] = tested on: NCI-H522 lung
[36] = tested on: EKVX NSCLC
[37] = tested on: OVCAR-8 ovarian
[38] = tested on: MDA-MB-435
[39] = tested on: CAKI-1 renal
[40] = tested on: SNB-78 CNS
[41] = tested on: MOLT-4 leukemia
[42] = tested on: A498 renal
[43] = tested on: M14 melanoma
[44] = tested on: T-47D breast
[45] = tested on: SK-MEL-5 melanoma
[46] = tested on: XF 498 CNS
[47] = tested on: UACC-62 melanoma
[48] = tested on: CCRF-CEM leukemia
[49] = tested on: NCI/ADR-RES ovarian
[50] = tested on: ACHN renal
[51] = tested on: HS 578T breast
[52] = tested on: OVCAR-5 ovarian
[53] = tested on: UACC-257 melanoma
[54] = tested on: K-562 leukemia
[55] = tested on: U251 CNS
[56] = tested on: NCI-H23 lung
[57] = tested on: MCF7 breast
[58] = tested on: LXFL 529 NSCLC
[59] = tested on: SW-620 colon
[60] = tested on: DU-145 prostate
[61] = tested on: SK-MEL-2 melanoma
[62] = tested on: MALME-3M melanoma
[63] = tested on: NCI-H460 lung
[64] = tested on: SF-268 CNS
[65] = tested on: RXF 393 renal
[66] = tested on: SR leukemia
[67] = tested on: PC-3 prostate
[68] = tested on: HOP-18 NSCLC
[69] = tested on: DMS 273 small cell lung

Measured: TGI

Nc1ccc(C(=O)N/C(=C\c2cccc([N+](=O)[O-])c2)c2nc3[nH]c(=S)[nH]c(=O)c3[nH]2)cc1
> 89.5 µM: [44]
32.1 µM: [28]
> 94.5 µM: [1]
56.2 µM: [6]
64.9 µM: [25]
> 91.2 µM: [51]
67 µM: [7]
> 56.2 µM: [41] | [47]
> 93.1 µM: [5] | [10]
45.6 µM: [3]
34.3 µM: [46]
55.9 µM: [65]
> 85.6 µM: [55]
> 96.7 µM: [2] | [20]
> 90.3 µM: [37]
not listed: [68] | [69]
> 100 µM: all other assays above

Cc1cccc(C)c1NC(=O)C1=NC(=S)NC(c2ccccc2)C1c1nc2ccccc2s1 (configuration not stated)
not listed: [1] | [3] | [8] | [19] | [23] | [24] | [27] | [30] | [38] | [44] | [49] | [51] | [52] | [57] | [60] | [67]
> 100 µM: all other assays above

O=C(O)c1ccc(C2=Cc3cc(Cl)ccc3OC2)cc1
not listed: [1] | [4] | [8] | [23] | [30] | [38] | [44] | [49] | [51] | [57] | [60] | [67]
> 100 µM: all other assays above
